Results: patent US20120071475A1, “UREA DERIVATIVES HAVING PI3K-INHIBITING ACTIVITY” (SHIONOGI & CO., LTD., priority 2009, published 2012)

What was measured:
PI3Kγ = PI3Kγ (Homo sapiens, UniProt P48736); test: PI3Kγ inhibitory activity (PI3-kinase HTRF assay, inhibition ratio); type: biochemical; details: compound at 10 μmol/L; for inhibition at 10 µM: 0.5 h, read-out: PI3Kg Inhibition Ratio % (10 μM)
Experimental: For each compound synthesized in the above Examples, PI3Kγ inhibitory activity was measured.
The PI3Kγ inhibitory activity of a compound was evaluated using PI3-kinase HTRF™ assay (Millipore) according to the following procedure:
To each well of a testing plate, 5 μL of a compound solution containing 10% DMSO (40 μmol/L as the concentration of the compound), 5 μL of a substrate solution (40 μmol/L phosphatidylinositol (4,5)-bisphosphate, 20 mmol/L MgCl2, 10 mmol/L DTT), and 5 μL of an enzyme solution (80 μg/mL PI-3 kinase y, 10 mmol/L MgCl2, 5 mmol/L DTT) were added, and then allowed to stand for 10 minutes.
Then, 5 μL of a reaction solution (40 μmol/L ATP, 10 mmol/L MgCl2, 5 mmol/L DTT) was added thereto. After reacting for 30 minutes at room temperature, 5 μL of a solution containing EDTA and biotinylated phosphatidylinositol (3,4,5)-triphosphate was added to quench the reaction.
5 μL of a detection reagent containing a europium-labeled anti-GST antibody, the GST-tagged PH domain, and allophycocyanin-labeled streptavidin was added thereto. After 18 hours, HTRF (excitation wavelength: 330 nm, measured wavelengths: 620 nm and 665 nm) was measured.
HTRF ratio was defined as the value obtained by dividing the amount of fluorescence obtained at the measured wavelength 665 nm by the amount of fluorescence obtained at 620 nm. The HTRF ratio in the absence of a compound was defined as 100% activity and the HTRF ratio in the absence of PI-3 kinase y was defined as 0% activity to calculate an inhibition ratio, which was defined as the PI3Kγ inhibitory activity of a compound at 10 μmol/L.

[1] = Metabolic stability test (pooled human liver microsome); type: in vitro ADME; details: percentage of test compound remained after 30 minutes, pooled human liver microsome 0.5 mg protein/mL, 1 mmol/L NADPH, 37° C.; for hLMS_ox(at 0.5 μM) %: compound 0.5 μM
Experimental: After a subject compound was reacted for a certain time using a pooled human liver microsome commercially available, a reacted sample and an unreacted sample are compared to calculate a survival ratio, and then the degree of metabolism in the liver was evaluated.
0.2 mL of a buffer solution (50 mmol/L of Tris-HCl in pH 7.4, 150 mmol/L of potassium chloride, and 10 mmol/L of magnesium chloride) containing a human liver microsome of 0.5 mg protein/mL was reacted in the presence of 1 mmol/L NADPH at 37° C. for 0 or 30 minutes (oxidative reaction). After reacting, 50 μL of the reaction solution was added to 100 μL of a solution of methanol/acetonitrile (1/1 (v/v)), mixed, and then centrifuged at 3000 rpm for 15 minutes. The test compound in the supernatant was quantitated with LC/MS/MS. The amount of the compound at a reaction time of 0 minute was defined as 100% and, based on that, the percentage of the test compound remained after reacting for 30 minutes was calculated.

Chain of PI3Kγ (P48736 whole entry, species assumed): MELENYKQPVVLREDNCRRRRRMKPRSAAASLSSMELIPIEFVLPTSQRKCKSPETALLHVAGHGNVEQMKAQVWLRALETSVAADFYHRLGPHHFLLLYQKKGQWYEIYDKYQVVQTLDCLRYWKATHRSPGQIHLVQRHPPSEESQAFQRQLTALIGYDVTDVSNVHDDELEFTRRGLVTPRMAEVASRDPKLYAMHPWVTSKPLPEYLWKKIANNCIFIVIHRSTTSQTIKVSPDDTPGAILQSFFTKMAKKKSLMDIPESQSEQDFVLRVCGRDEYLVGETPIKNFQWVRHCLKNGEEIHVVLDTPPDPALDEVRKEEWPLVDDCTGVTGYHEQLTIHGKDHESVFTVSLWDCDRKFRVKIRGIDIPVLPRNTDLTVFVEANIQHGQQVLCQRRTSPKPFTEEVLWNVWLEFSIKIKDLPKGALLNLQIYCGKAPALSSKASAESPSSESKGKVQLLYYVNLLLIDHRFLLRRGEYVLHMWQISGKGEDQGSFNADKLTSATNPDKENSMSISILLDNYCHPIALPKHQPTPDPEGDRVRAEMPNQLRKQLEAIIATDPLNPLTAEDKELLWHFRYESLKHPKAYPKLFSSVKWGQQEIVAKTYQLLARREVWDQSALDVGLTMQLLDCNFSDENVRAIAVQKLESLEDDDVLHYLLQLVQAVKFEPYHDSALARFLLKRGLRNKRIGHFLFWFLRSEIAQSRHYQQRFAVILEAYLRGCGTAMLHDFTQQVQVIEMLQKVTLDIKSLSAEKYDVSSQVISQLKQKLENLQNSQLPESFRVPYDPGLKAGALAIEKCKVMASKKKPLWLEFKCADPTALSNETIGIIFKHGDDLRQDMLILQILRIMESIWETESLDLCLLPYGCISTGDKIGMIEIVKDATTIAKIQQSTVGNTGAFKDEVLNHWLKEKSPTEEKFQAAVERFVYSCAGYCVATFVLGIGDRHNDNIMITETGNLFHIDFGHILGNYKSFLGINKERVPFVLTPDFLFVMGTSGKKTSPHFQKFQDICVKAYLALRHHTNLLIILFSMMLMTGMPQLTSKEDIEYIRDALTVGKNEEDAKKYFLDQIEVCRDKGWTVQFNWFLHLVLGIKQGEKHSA

SMILES | inhibition at 10 µM (PI3Kγ) | other results
COC(=O)c1ccsc1NC(=O)Nc1nc2c(s1)CN(c1cc(OC)nc(OC)n1)CC2 [Compound I-1] | 79% | 
COC(=O)c1sccc1NC(=O)Nc1nc2c(s1)CN(c1cc(OC)nc(OC)n1)CC2 [Compound I-2] | 69% | 
COc1cc(N2CCc3nc(NC(=O)Nc4ccccc4C(=O)OC(C)(C)C)sc3C2)nc(OC)n1 [Compound I-3] | ≥ 95% | hLMS_ox(at 2 μM) % ([1]; compound 2 μM): 82%
COC(=O)c1ccccc1NC(=O)Nc1nc2c(s1)CN(c1cc(OC)nc(OC)n1)CC2 [Compound I-6] | ≥ 95% | 
COc1cc(N2CCc3nc(NC(=O)Nc4ccccc4C(=O)N4CCCCC4)sc3C2)nc(OC)n1 [Compound I-8] | 93% | 
COc1cc(N2CCc3nc(NC(=O)Nc4ccccc4C(=O)N(C)C(C)(C)C)sc3C2)nc(OC)n1 [Compound I-11] | 94% | 
COc1cc(N2CCc3nc(NC(=O)Nc4ccccc4C(=O)NC(C)(C)CO)sc3C2)nc(OC)n1 [Compound I-15] | 94% | 
COC(=O)C(C)(C)NC(=O)c1ccccc1NC(=O)Nc1nc2c(s1)CN(c1cc(OC)nc(OC)n1)CC2 [Compound I-17] | ≥ 95% | 
COCC(C)NC(=O)c1ccccc1NC(=O)Nc1nc2c(s1)CN(c1cc(OC)nc(OC)n1)CC2 (stereo not drawn) [Compound I-18] | 94% | 
COC(=O)c1ccncc1NC(=O)Nc1nc2c(s1)CN(c1cc(OC)nc(OC)n1)CC2 [Compound I-21] | 74% | 
COc1cc(N2CCc3nc(NC(=O)Nc4ccccc4C(=O)NC(C)(C)C#N)sc3C2)nc(OC)n1 [Compound I-25] | ≥ 95% | 
COc1cc(N2CCc3nc(NC(=O)Nc4ccsc4C(=O)NC(C)(C)C)sc3C2)nc(OC)n1 [Compound I-26] | ≥ 95% | 
COc1cc(N2CCc3nc(NC(=O)Nc4ccc(F)cc4C(=O)NC(C)C)sc3C2)nc(OC)n1 [Compound I-32] | ≥ 95% | 
COc1cc(N2CCc3nc(NC(=O)Nc4ccccc4NC(=O)C(C)(C)C)sc3C2)nc(OC)n1 [Compound I-44] | ≥ 95% | 
COc1cc(N2CCc3nc(NC(=O)Nc4ccccc4OCC(C)C)sc3C2)nc(OC)n1 [Compound I-47] | ≥ 95% | 
COc1cc(N2CCc3nc(NC(=O)Nc4ccccc4C(=O)CCC(C)C)sc3C2)nc(OC)n1 [Compound I-66] | ≥ 95% | 
COc1cc(N2CCc3nc(NC(=O)Nc4ccccc4CC(C)C)sc3C2)nc(OC)n1 [Compound I-68] | ≥ 95% | 
COc1cc(N2CCc3nc(NC(=O)Nc4ccccc4C(=O)NCCO)sc3C2)nc(OC)n1 [Compound I-85] | ≥ 95% | hLMS_ox(at 0.5 μM) % [1]: 90.2%
COc1cc(N2CCc3nc(NC(=O)Nc4ccccc4C(=O)NC(C)CO)sc3C2)nc(OC)n1 (stereo not drawn) [Compound I-87] | ≥ 95% | hLMS_ox(at 0.5 μM) % [1]: 91.9%
COc1nccc(N2CCc3nc(NC(=O)Nc4ccccc4OCCC(C)C)sc3C2)n1 [Compound I-96] | ≥ 95% | 
O=C(Nc1nc2c(s1)CN(c1ccnc(Cl)n1)CC2)Nc1ccccc1C(=O)NCCO [Compound I-99] | ≥ 95% | hLMS_ox(at 0.5 μM) % [1]: 90.6%
COc1cc(N2CCc3nc(NC(=O)Nc4ccccc4C(O)CC(C)C)sc3C2)nc(OC)n1 (stereo not drawn) [Compound I-116] | ≥ 95% | 

SMILES | inhibition at 10 µM (PI3Kγ) | other results
CC(CO)NC(=O)c1ccccc1NC(=O)Nc1nc2c(s1)CN(c1ccc(F)c(F)c1)CC2 (stereo not drawn) [Compound I-118] | ≥ 95% | hLMS_ox(at 0.5 μM) % [1]: 89.8%
CC(CO)NC(=O)c1ccccc1NC(=O)Nc1nc2c(s1)CN(c1cc(F)cc(F)c1)CC2 (stereo not drawn) [Compound I-119] | ≥ 95% | hLMS_ox(at 0.5 μM) % [1]: 90.8%
CC(CO)NC(=O)c1ccccc1NC(=O)Nc1nc2c(s1)CN(c1ccnc(F)c1)CC2 (stereo not drawn) [Compound I-122] | ≥ 95% | hLMS_ox(at 0.5 μM) % [1]: 90.6%
COc1cc(N2CCc3nc(NC(=O)N[C@@H]4C[C@H]4C(=O)NC(C)C)sc3C2)nc(OC)n1 [Compound I-130] |  | hLMS_ox(at 0.5 μM) % [1]: 104%
CC(C)NC(=O)c1nn(C)cc1NC(=O)Nc1nc2c(s1)CN(c1cncc(C(F)(F)F)c1)CC2 [Compound I-132] | 85% | 
Cc1cc(N2CCc3nc(NC(=O)Nc4cn(C)nc4C(=O)NC(C)C)sc3C2)nc(Cl)n1 [Compound I-164] | 93% | 
COc1cc(N2CCc3nc(NC(=O)Nc4ccccc4S(=O)(=O)NC(C)C)sc3C2)nc(OC)n1 [Compound I-171] | 85% | 
COc1cc(N2CCc3nc(NC(=O)Nc4ccccc4O)sc3C2)nc(OC)n1 [Compound I-177] | 88% | 
Cc1cc(N2CCc3nc(NC(=O)Nc4ccccc4C(=O)NC(C)C)sc3C2)nc(C#N)n1 [Compound I-181] | 79% | hLMS_ox(at 0.5 μM) % [1]: 85.9%
CC(C)NC(=O)c1nn(C)cc1NC(=O)Nc1nc2c(s1)CN(c1cc[nH]c(=O)c1)CC2 [Compound I-184] | 75% | hLMS_ox(at 0.5 μM) % [1]: 98.1%
COc1cc(N2CCc3nc(NC(=O)Nc4ccccc4C(=O)NN(C)C)sc3C2)nc(OC)n1 [Compound I-194] |  | PI3Kg Inhibition Ratio % (10 μM) (PI3Kγ): 92%
CO/N=C(\C)c1ccccc1NC(=O)Nc1nc2c(s1)CN(c1cc(OC)nc(OC)n1)CC2 [Compound I-196] | 83% | 
COc1cc(N2CCc3nc(NC(=O)Nc4cccc5c4C(=O)N(C(C)C)C5)sc3C2)nc(OC)n1 [Compound I-201] | 78% | 
C[C@@H](CO)NC(=O)c1ccccc1NC(=O)Nc1nc2c(s1)CN(c1ccc(C(F)(F)F)cc1)CC2 [Compound I-206] | 87% | 
C[C@H](CO)NC(=O)c1ccccc1NC(=O)Nc1nc2c(s1)CN(c1ccc(C(F)(F)F)cc1)CC2 [Compound I-207] | 93% | hLMS_ox(at 0.5 μM) % [1]: 93.5%
CC(=O)c1cccc(-c2ccc3nc(NC(=O)Nc4ccccc4OCCC(C)C)sc3c2)c1 [Compound I-214] | ≥ 95% | 
COc1ccc(-c2ccc3nc(NC(=O)Nc4ccccc4OCCC(C)C)sc3c2)cn1 [Compound I-215] | ≥ 95% | 
CC(=O)c1cccc(-c2ccc3nc(NC(=O)Nc4ccccc4OCCC(C)C)nn3c2)c1 [Compound I-217] | 88% | 
COc1ccc(-c2ccc3nc(NC(=O)Nc4ccccc4OCCC(C)C)nn3c2)cn1 [Compound I-218] | 90% | 
COc1ccc(-c2ccc3nc(NC(=O)Nc4ccccc4OCCC(C)C)sc3n2)cn1 [Compound I-220] | ≥ 95% | 
CC(=O)c1cccc(-c2cc(NC(=O)Nc3ccccc3OCCC(C)C)nn2C)c1 [Compound I-222] | ≥ 95% | 
COc1ccc(-c2cc(NC(=O)Nc3ccccc3C(=O)NC(C)C)nn2C)cn1 [Compound I-228] | 88% | 
